In article PMC5037861 (BMC Research Notes, 2016):
Values belong to the molecule of their own block, whether it stands above or below them.

Experiments:
human B2R [1] = biological target: T1, human B2R (Homo sapiens, UniProt P30411); experiment: Competition of [3H]BK (3 nM) binding to HEK 293a cells stably expressing myc-tagged human B2R; conditions: from binding competition IC50 values
T1 construct: expressed in transfected cells; host or cells: HEK 293a
T1 sequence (P30411 1-391): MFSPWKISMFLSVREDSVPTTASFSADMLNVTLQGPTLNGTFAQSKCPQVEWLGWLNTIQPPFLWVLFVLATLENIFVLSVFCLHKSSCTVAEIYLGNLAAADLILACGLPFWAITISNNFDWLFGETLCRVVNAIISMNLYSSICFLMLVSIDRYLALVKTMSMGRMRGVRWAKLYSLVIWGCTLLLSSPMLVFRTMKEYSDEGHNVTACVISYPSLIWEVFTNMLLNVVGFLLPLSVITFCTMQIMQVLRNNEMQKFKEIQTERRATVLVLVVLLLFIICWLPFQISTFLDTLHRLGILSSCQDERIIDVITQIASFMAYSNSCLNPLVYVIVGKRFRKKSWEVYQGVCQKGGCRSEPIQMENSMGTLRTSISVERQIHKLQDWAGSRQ
Source text: Values are the means ± SEM. of the number of duplicate determinations indicated by n. Average specific binding without competitor (100 %) averaged 133.8 fmol/well.

rabbit B2R-GFP = tested on: T2, rabbit B2R-GFP; experiment: Confocal microscopy of HEK 293 cells stably expressing B2R-GFP; assay type: cell-based; conditions: for infrared labeling of cells: followed by rinsing
T2 construct: expressed in transfected cells; host or cells: HEK 293

[2] = tested on: T3, β2-adrenoceptor-GFP Topaz fusion protein; experiment: Confocal microscopy of HEK 293 cells transiently expressing β2-adrenoceptor-GFP Topaz (specificity control); assay type: cell-based; conditions: for labeling of cells expressing β2-adrenoceptor-GFP Topaz: B-10665 10 nM, B-10666 100 nM, 30 min; for β2-adrenoceptor-GFP endocytosis: isoproterenol 100 nM 30 min, propranolol 1 μM pretreatment
T3 construct: expressed in transfected cells; host or cells: HEK 293 (transient, polyethylenimine); vector a gift from Prof; Michel Bouvier

endogenous B2R [3] = biological target: T4, endogenous B2R (Homo sapiens, UniProt P30411); experiment: Human isolated umbilical vein contractility assay; design: The human umbilical vein is a contractile bioassay for the endogenous B2R; from tissue; host or cells: human isolated umbilical vein (A2); slices of human umbilical cord (A8); conditions: agonist contraction; based on an extrapolated concentration-effect curve
T4 sequence (P30411 1-391): T1 sequence (P30411 1-391)
Experimental: Local ethics review boards approved the anonymous use of segments of human umbilical cords obtained following elective cesarean sections; informed consent was obtained from the mothers. Novel Cy-7 conjugated B2R ligands were assayed via the contraction of the human isolated umbilical vein [9, 10]. Cumulative concentration effect curves were constructed for the agonist version and its potency compared to that of BK. […] Results are presented as mean ± SEM. Radioligand binding data were fitted by nonlinear regression to a one-site competition equation using a least-square method (Prism 5.0, GraphPad Software Inc., San Diego, CA, USA) and IC50 values with their 95 % confidence limits were calculated from this procedure. The same computer program was used to draw concentration-effect curves (least square fitting of sigmoidal dose–response equation with variable slope) and to derive contractile EC50 values.

endogenous B2R [4] = biological target: T4, endogenous B2R; design: The human umbilical vein is a contractile bioassay for the endogenous B2R; from tissue; host or cells: human isolated umbilical vein (A2); conditions: cited from earlier work; for pA2: antagonism of BK-induced contraction
human myc-tagged B2Rs = tested on: T5, human myc-tagged B2Rs; experiment: Cytofluorometry of detached HEK 293a cells stably expressing human myc-tagged B2Rs; assay type: cell-based
T5 construct: expressed in transfected cells; host or cells: HEK 293a
Experimental: A subclone of HEK 293 cells, called HEK 293a, originally obtained from Sigma-Aldrich was used in these experiments, either as a non-transfected cell type or as one stably expressing myc-tagged human B2Rs. These cells were grown in Dulbecco’s modified Eagle’s medium supplemented with 10 % fetal bovine serum, 1 % L-glutamine, and 1 % penicillin–streptomycin stock solutions (100×). Cells were detached using the protease-free Cell Dissociation Buffer (Invitrogen), incubated in D-MEM without serum at 37 °C for 30 min under agitation in the presence of a Cy7-conjugated ligands and other drugs, rapidly centrifuged (30 s, 11,000g) and resuspended in phosphate buffered saline. Then, the fluorescence of the cell suspensions was assessed using the BD SORP LSR II cell analyzer for the uptake of the as a function of stimulation and transgene expression. The cytofluorometry results were analyzed using the BD FACS DIVA software.

human B2R [5] = biological target: T1, human B2R; experiment: IVIS infrared fluorescence imaging of cell wells, HEK 293a cells expressing human myc-B2R; assay type: cell-based; conditions: 1–10 nM, 30 min, 37 °C
Source text: (§1) The apparatus was set in fluorescence mode with filters at 675 nm (excitation) and 831 nm (emission), medium binning and 60 s exposure time. This experiment exploited HEK 293a cells grown in 24-well plates that stably expressed either human or rat B2R sequences N-terminally tagged with the myc epitope. Expression of these receptors as a function of pharmacologic treatment was controlled in separate plates of cells that were not fixed or permeabilized using the binding of anti-myc monoclonal antibody (clone 4A6, Millipore, dilution 1:1000) added along goat horseradish peroxidase-conjugated anti-mouse IgG antibodies (Santa Cruz, dilution 1:1000). […] The resulting blue precipitate was photographed at the macroscopic scale.

rat B2R = tested on: T6, rat B2R; experiment: IVIS infrared fluorescence imaging of cell wells, HEK 293a cells expressing rat myc-B2R; assay type: cell-based; conditions: 1–10 nM, 30 min, 37 °C
T6 construct: expressed in transfected cells; host or cells: HEK 293a
Source text: as §1

endogenous B2R [6] = biological target: T4, endogenous B2R; experiment: IVIS infrared fluorescence imaging of slices of human umbilical cord; design: The human umbilical vein is a contractile bioassay for the endogenous B2R; from tissue; host or cells: human isolated umbilical vein (A2); slices of human umbilical cord (A8); conditions: up to 250 nM, data not shown

loss of affinity vs. parent peptide (human B2R [1]): ~ twofold
Molecule: N=C(N)NCCC[C@@H](N)C(=O)N[C@@H](CCCNC(=N)N)C(=O)N1CCC[C@H]1C(=O)N1C[C@H](O)C[C@H]1C(=O)NCC(=O)N[C@H](C(=O)N[C@@H](CO)C(=O)N1[C@H](C(=O)N[C@H](C(=O)N[C@@H](CCCNC(=N)N)C(=O)O)C2Cc3ccccc3C2)C[C@@H]2CCCC[C@@H]21)C1Cc2ccccc2C1 [Peptide B-9972, D-Arg-[Hyp^3,Igl^5,Oic^7,Igl^8]-BK, reference compound]

loss of affinity vs. parent peptide (human B2R [1]): ~ 35 fold
loss of potency vs. BK (endogenous B2R [3]): 4240 fold
Molecule: CN1C(=CC=C2C=C(C=CC3=[N+](CCCCCC(=O)N[C@H](CCCNC(=N)N)C(=O)N[C@@H](CCCNC(=N)N)C(=O)N4CCC[C@H]4C(=O)N4C[C@H](O)C[C@H]4C(=O)NCC(=O)N[C@H](C(=O)N[C@@H](CO)C(=O)N4[C@H](C(=O)N[C@H](C(=O)N[C@@H](CCCNC(=N)N)C(=O)O)C5Cc6ccccc6C5)C[C@@H]5CCCC[C@@H]54)C4Cc5ccccc5C4)c4ccccc4C3(C)C)CCC2)C(C)(C)c2ccccc21 [Peptide B-10666, Cy7-B-9972]
infrared labeling of cells (rabbit B2R-GFP; 30 min, 37 °C): did not label untransfected cells or icatibant-pretreated receptor-expressing cells
endocytosis of B2R-GFP (rabbit B2R-GFP; 30 min, 37 °C, live cells): determined the endocytosis of a fraction of the plasma membrane receptors
labeling of cells expressing β2-adrenoceptor-GFP Topaz [2]: Lack of labeling

Molecule: N=C(N)NCCC[C@@H](N)C(=O)N[C@@H](CCCNC(=N)N)C(=O)N1CCC[C@H]1C(=O)N1C[C@H](O)C[C@H]1C(=O)NCC(=O)N[C@H](C(=O)N[C@@H](CO)C(=O)N[C@@H](C(=O)N1[C@H](C(=O)N[C@@H](CCCNC(=N)N)C(=O)O)C[C@@H]2CCCC[C@@H]21)C1Cc2ccccc2C1)C1Cc2ccccc2C1 [Peptide B-9430, D-Arg-[Hyp^3,Igl^5,D-Igl^7,Oic^8]-BK]
pA2 (endogenous B2R [4]): 7.7

loss of affinity vs. parent peptide (human B2R [1]): about equipotent to its parent peptide
detection of endogenous B2R (endogenous B2R [6]): could not detect endogenous B2R presence
Molecule: CN1C(=CC=C2C=C(C=CC3=[N+](CCCCCC(=O)N[C@H](CCCNC(=N)N)C(=O)N[C@@H](CCCNC(=N)N)C(=O)N4CCC[C@H]4C(=O)N4C[C@H](O)C[C@H]4C(=O)NCC(=O)N[C@H](C(=O)N[C@@H](CO)C(=O)N[C@@H](C(=O)N4[C@H](C(=O)N[C@@H](CCCNC(=N)N)C(=O)O)C[C@@H]5CCCC[C@@H]54)C4Cc5ccccc5C4)C4Cc5ccccc5C4)c4ccccc4C3(C)C)CCC2)C(C)(C)c2ccccc21 [Peptide B-10665, Cy7-B-9430]
binding detected by infrared fluorescence (cell labeling) (human myc-tagged B2Rs; 30 min, 37 °C, detached intact cells): specific binding that plateaued in the low nanomolar range
infrared labeling of cells (rabbit B2R-GFP; 30 min, 37 °C): labelled essentially plasma membranes in the infrared if and only if B2R-GFP was expressed
labeling of cells expressing β2-adrenoceptor-GFP Topaz [2]: Lack of labeling
infrared staining of cell wells (human B2R [5]): stained the cell wells (from a 24-well plate) in a concentration-dependent manner
infrared staining of cell wells (rat B2R): more so for the rat construction

Molecule: CC(C)NCC(O)c1ccc(O)c(O)c1 (centres unmarked) [isoproterenol, reference compound]
β2-adrenoceptor-GFP endocytosis [2]: the receptors are then translocated into endosomes

Molecule: FTC-B-9430
pA2 (endogenous B2R [4]): 6.96

Molecule: icatibant [reference compound]
competition of B-10665 binding (human myc-tagged B2Rs; icatibant applied 15 min before B-10665): extensive competition
prevention of B-10665 (10 nM) plasma membrane fluorescence (rabbit B2R-GFP; pretreatment of B2R-GFP-expressing cells): prevented

Molecule: CC(C)NCC(O)COc1cccc2ccccc12 (centres unmarked) [propranolol, reference compound]
β2-adrenoceptor-GFP endocytosis [2]: agonist-induced endocytosis was prevented

Molecule: fluorescein-5-thiocarbamoyl (FTC)-B-9972 [FTC-B-9972]
EC50 (endogenous B2R [4]; contraction): 108 nM
